# Laboratory results from ChEMBL document CHEMBL1154070, “QSAR study of Akt/protein kinase B (PKB) inhibitors using support vector machine” (Eur J Med Chem, 2009).
# Target: RAC-alpha serine/threonine-protein kinase (Homo sapiens, UniProt P31749)
# Experiment: Inhibition of Akt
# Chain of RAC-alpha serine/threonine-protein kinase (P31749 whole entry): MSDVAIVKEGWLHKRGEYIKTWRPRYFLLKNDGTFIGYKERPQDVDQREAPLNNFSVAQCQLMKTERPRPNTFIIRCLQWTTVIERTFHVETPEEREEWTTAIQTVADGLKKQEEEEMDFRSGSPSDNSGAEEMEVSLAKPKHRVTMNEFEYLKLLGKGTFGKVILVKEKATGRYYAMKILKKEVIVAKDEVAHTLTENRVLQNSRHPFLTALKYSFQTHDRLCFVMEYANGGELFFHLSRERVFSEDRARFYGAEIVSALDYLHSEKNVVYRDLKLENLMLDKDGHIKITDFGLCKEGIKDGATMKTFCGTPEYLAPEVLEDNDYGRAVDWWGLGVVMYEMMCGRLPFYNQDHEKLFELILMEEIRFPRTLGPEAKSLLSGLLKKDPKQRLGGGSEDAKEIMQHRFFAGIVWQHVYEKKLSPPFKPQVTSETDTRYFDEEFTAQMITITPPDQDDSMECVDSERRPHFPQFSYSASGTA
row,SMILES,IC50
1,N[C@H](CNc1cnc(Cl)c(/C=C/c2ccncc2)c1)Cc1c[nH]c2ccccc12,0.079 µM
2,N[C@H](COc1cncc(-c2ccc3c(=O)[nH]ccc3c2)c1)Cc1c[nH]c2ccccc12,1.02 µM
3,N[C@H](COc1cncc(-c2ccncc2)c1)Cc1c[nH]c2ccccc12,0.245 µM
4,N[C@H](COc1cncc(C(=O)Nc2ccncc2)c1)Cc1c[nH]c2ccccc12,1.66 µM
5,Nc1nccc2cc(-c3cncc(OC[C@@H](N)Cc4c[nH]c5ccccc45)c3)ccc12,0.188 µM
6,Cc1n[nH]c2cnc(-c3cncc(OC[C@@H](N)Cc4ccccc4)c3)cc12,0.014 µM
7,N[C@H](COc1cncc(-c2cc3ccncc3s2)c1)Cc1c[nH]c2ccccc12,0.179 µM
8,N[C@H](COc1cncc(-c2ccc3ccccc3c2)c1)Cc1c[nH]c2ccccc12,1.12 µM
9,O=C1C(Sc2cccc(Cl)c2Cl)=C(Cl)C(=O)c2[nH]ncc21,12.3 µM
10,Cc1cc(C)c(C[C@H](N)COc2cncc(-c3cc4c(C)n[nH]c4cn3)c2)c(C)c1,0.039 µM
11,Cc1n[nH]c2cnc(-c3cncc(OC[C@@H](N)Cc4ccc(C(F)(F)F)cc4)c3)cc12,0.018 µM
12,CN(C)c1n[nH]c2ccc(-c3cncc(OC[C@@H](N)Cc4c[nH]c5ccccc45)c3)cc12,0.018 µM
13,N[C@H](COc1cncc(-c2ccc3[nH]nc(C4CC4)c3c2)c1)Cc1c[nH]c2ccccc12,0.0026 µM
14,CCc1ncc(OC[C@@H](N)Cc2c[nH]c3ccccc23)cc1-c1ccc2cnccc2c1,0.0008 µM
15,Cc1ccc(F)cc1C[C@H](N)COc1cncc(-c2cc3c(C)n[nH]c3cn2)c1,0.0039 µM
16,N[C@H](COc1cncc(-c2ccc3c(c2)C(c2ccco2)C(=O)N3)c1)Cc1c[nH]c2ccccc12 (stereo partly specified),0.00017 µM
17,N[C@H](COc1cncc(-c2ccc3c(c2)C(c2ccccn2)C(=O)N3)c1)Cc1c[nH]c2ccccc12 (stereo partly specified),0.0103 µM
18,Cc1n[nH]c2cnc(-c3cncc(OC[C@@H](N)Cc4c(F)cccc4F)c3)cc12,0.0655 µM
19,N[C@H](COc1cncc(-c2ccc3ncccc3c2)c1)Cc1c[nH]c2ccccc12,0.312 µM
20,N[C@H](COc1cncc(-c2ccc3nnccc3c2)c1)Cc1c[nH]c2ccccc12,0.215 µM
21,Cc1n[nH]c2cnc(-c3cncc(OC[C@@H](N)Cc4ccc(Br)cc4)c3)cc12,0.005 µM
22,CCc1n[nH]c2ccc(-c3cncc(OC[C@@H](N)Cc4c[nH]c5ccccc45)c3)cc12,0.00115 µM
23,CC1C(=O)Nc2ccc(-c3cncc(OC[C@@H](N)Cc4c[nH]c5ccccc45)c3)cc21 (stereo partly specified),0.004 µM

row,SMILES,IC50
1,N[C@H](COc1cncc(-c2ccc3c(c2)C(=O)C(=O)N3)c1)Cc1c[nH]c2ccccc12,0.0054 µM
2,O=c1[nH]c2ccccc2n1C1CCN(Cc2ccc(-c3nc4cc(-n5cnnn5)ccc4nc3-c3ccccc3)cc2)CC1,0.02 µM
3,O=c1[nH]c2ccccc2n1C1CCN(Cc2ccc(-c3nc4ccc(-n5cnnn5)cc4nc3-c3ccccc3)cc2)CC1,0.063 µM
4,N[C@H](COc1cncc(-c2ccc3[nH]nc(-c4ccccc4)c3c2)c1)Cc1c[nH]c2ccccc12,0.0039 µM
5,N[C@H](COc1cncc(-c2ccc3[nH]nc(C=O)c3c2)c1)Cc1c[nH]c2ccccc12,1.85 µM
6,N[C@H](COc1cncc(-c2ccc3[nH]nc(-c4nccs4)c3c2)c1)Cc1c[nH]c2ccccc12,0.0098 µM
7,N[C@H](COc1cncc(-c2cnc3c(c2)CC(=O)N3)c1)Cc1c[nH]c2ccccc12,0.0074 µM
8,Cc1n[nH]c2cnc(-c3cncc(OC[C@@H](N)Cc4cccc(OCCN5CCOCC5)c4)c3)cc12,0.751 µM
9,Cc1ccc(C2C(=O)Nc3ccc(-c4cncc(OC[C@@H](N)Cc5c[nH]c6ccccc56)c4)cc32)o1 (stereo partly specified),0.0007 µM
10,N[C@H](COc1cncc(CCc2ccncc2)c1)Cc1c[nH]c2ccccc12,0.21 µM
11,CC(C)c1nc(-c2ccccc2)c(-c2ccc(CN3CCC(n4c(=O)[nH]c5ccccc54)CC3)cc2)[nH]c1=O,21.2 µM
12,Cc1n[nH]c2cnc(-c3cncc(OC[C@@H](N)Cc4cccc(OCC5CCNCC5)c4)c3)cc12,0.0068 µM
13,N[C@H](COc1cncc(-c2ccc3c(c2)C(c2cccnc2)C(=O)N3)c1)Cc1c[nH]c2ccccc12 (stereo partly specified),0.0104 µM
14,N[C@H](COc1cncc(NC(=O)c2ccncc2)c1)Cc1c[nH]c2ccccc12,2.02 µM
15,N[C@H](COc1cncc(-c2ccc(CO)cc2)c1)Cc1c[nH]c2ccccc12,4.02 µM
16,N[C@H](COc1cncc(-c2ccc3[nH]c(=O)sc3c2)c1)Cc1c[nH]c2ccccc12,0.099 µM
17,C(=C\c1cncc(OCC2CCN2)c1)/c1ccncc1 (stereo unspecified),10.9 µM
18,CCC1C(=O)Nc2ccc(-c3cncc(OC[C@@H](N)Cc4c[nH]c5ccccc45)c3)cc21 (stereo partly specified),0.0527 µM
19,N[C@H](COc1cncc(-c2ccc3c(c2)C(F)(F)C(=O)N3)c1)Cc1c[nH]c2ccccc12,0.0015 µM
20,Nc1n[nH]c2ccc(-c3cncc(OC[C@@H](N)Cc4c[nH]c5ccccc45)c3)cc12,0.0029 µM
21,Cc1cc(C2C(=O)Nc3ccc(-c4cncc(OC[C@@H](N)Cc5c[nH]c6ccccc56)c4)cc32)oc1C (stereo partly specified),0.01 µM
22,N[C@H](COc1cncc(-c2cccc3cnccc23)c1)Cc1c[nH]c2ccccc12,0.331 µM
23,Cn1cccc1C1C(=O)Nc2ccc(-c3cncc(OC[C@@H](N)Cc4c[nH]c5ccccc45)c3)cc21 (stereo partly specified),0.0082 µM

# Second part, the molecule after the results:
row,IC50,SMILES
1,0.273 µM,N[C@H](COc1cncc(/C=C/c2ccncc2)c1)C(c1ccccc1)c1ccccc1
2,0.016 µM,N[C@H](COc1cncc(-c2ccc3c(c2)CC(=O)N3)c1)Cc1ccccc1
3,0.0006 µM,N[C@H](COc1cncc(-c2ccc3c(c2)/C(=C/c2ccc[nH]2)C(=O)N3)c1)Cc1ccccc1
4,0.0012 µM,N[C@H](COc1cncc(-c2ccc3[nH]nc(-c4ccc[nH]4)c3c2)c1)Cc1c[nH]c2ccccc12
5,1.12 µM,N[C@H](COc1cncc(-c2ccc(NC(=O)Nc3ccccc3)cn2)c1)Cc1c[nH]c2ccccc12
6,0.0009 µM,N[C@H](COc1cncc(-c2ccc3c(c2)C(c2cccs2)C(=O)N3)c1)Cc1c[nH]c2ccccc12 (stereo partly specified)
7,0.153 µM,N[C@H](COc1cncc(-c2ccc3c(c2)C(c2c[nH]c4ccccc24)C(=O)N3)c1)Cc1c[nH]c2ccccc12 (stereo partly specified)
8,0.0025 µM,Cc1cc(C[C@H](N)COc2cncc(-c3cc4c(C)n[nH]c4cn3)c2)ccc1F
9,0.0084 µM,Cc1n[nH]c2cnc(-c3cncc(OC[C@@H](N)Cc4cccc(F)c4)c3)cc12
10,0.0033 µM,N[C@H](COc1cncc(-c2ccc3c(c2)C(C2CC2)C(=O)N3)c1)Cc1c[nH]c2ccccc12 (stereo partly specified)
11,0.76 µM,Cn1cc(C(CN)Oc2cncc(/C=C/c3ccncc3)c2)c2ccccc21 (stereo unspecified)
12,1.36 µM,Cc1n[nH]c2cnc(-c3cncc(OC[C@@H](N)Cc4cccc(OCC5CCCCC5)c4)c3)cc12
13,0.047 µM,Cc1n[nH]c2cnc(-c3cncc(OC[C@@H](N)Cc4cccc(OCCN)c4)c3)cc12
14,0.012 µM,Cc1n[nH]c2cnc(-c3cncc(OC[C@@H](N)Cc4ccc(F)c(F)c4F)c3)cc12
15,0.08 µM,CC(C)=C1C(=O)Nc2ccc(-c3cncc(OC[C@@H](N)Cc4c[nH]c5ccccc45)c3)cc21
16,0.006 µM,Cc1cc(F)ccc1C[C@H](N)COc1cncc(-c2cc3c(C)n[nH]c3cn2)c1
17,0.0014 µM,N[C@H](COc1cncc(-c2ccc3c(c2)C(Cc2ccco2)C(=O)N3)c1)Cc1ccccc1 (stereo partly specified)
18,0.014 µM,Cc1n[nH]c2cnc(-c3cncc(OC[C@@H](N)Cc4cccc5c4OC(F)(F)O5)c3)cc12
19,0.0015 µM,N[C@H](COc1cncc(-c2ccc3c(c2)C(c2ccc[nH]2)C(=O)N3)c1)Cc1c[nH]c2ccccc12 (stereo partly specified)
20,0.0013 µM,N[C@H](COc1cncc(-c2ccc3[nH]nc(-c4cccs4)c3c2)c1)Cc1c[nH]c2ccccc12
21,0.0059 µM,N[C@H](COc1cncc(-c2ccc3c(c2)C(c2ccccc2)C(=O)N3)c1)Cc1c[nH]c2ccccc12 (stereo partly specified)
22,0.0403 µM,CCc1c(C)[nH]c(C2C(=O)Nc3ccc(-c4cncc(OC[C@@H](N)Cc5c[nH]c6ccccc56)c4)cc32)c1C (stereo partly specified)
23,0.018 µM,N[C@H](COc1cncc(-c2ccc3[nH]nc(N4CCOCC4)c3c2)c1)Cc1c[nH]c2ccccc12
24,0.0072 µM,N[C@H](COc1cncc(-c2ccc3c(c2)C(c2ncc[nH]2)C(=O)N3)c1)Cc1c[nH]c2ccccc12 (stereo partly specified)
25,16 µM,O=C1C(Nc2cc(F)ccc2F)=C(Cl)C(=O)c2[nH]ncc21
